The NIST ThermoML archive (doi:10.1016/j.jct.2013.10.001)
“And” between values parts separate entries of the source, which are not always exact repeats. Equal entries are not always repeated.

Details: Liquid

CC(C)CCCC(C)CCCC(C)CCCCC(C)CCCC(C)CCCC(C)C (stereo not drawn) [2,6,10,15,19,23-hexamethyltetracosane]
Details | viscosity
333.15 K, 9160 kPa, quartz resonator viscometer | 9 mPa·s
333.15 K, 19900 kPa, quartz resonator viscometer | 10.9 mPa·s
333.15 K, 30240 kPa, quartz resonator viscometer | 13 mPa·s and 13.1 mPa·s
333.15 K, 40000 kPa, quartz resonator viscometer | 15.3 mPa·s
333.15 K, 49340 kPa, quartz resonator viscometer | 17.7 mPa·s
333.15 K, 60990 kPa, quartz resonator viscometer | 21.4 mPa·s
333.15 K, 70280 kPa, quartz resonator viscometer | 25 mPa·s
333.15 K, 80900 kPa, quartz resonator viscometer | 28.5 mPa·s and 28.6 mPa·s
338.15 K, 50600 kPa, Falling or rolling sphere viscometry | 15.56 mPa·s
338.15 K, 102800 kPa, Falling or rolling sphere viscometry | 32.94 mPa·s
338.15 K, 150200 kPa, Falling or rolling sphere viscometry | 60.9 mPa·s
338.15 K, 198400 kPa, Falling or rolling sphere viscometry | 108.9 mPa·s
338.15 K, 249700 kPa, Falling or rolling sphere viscometry | 194 mPa·s
338.15 K, 272700 kPa, Falling or rolling sphere viscometry | 243.8 mPa·s
338.15 K, 299800 kPa, Falling or rolling sphere viscometry | 327.6 mPa·s
338.15 K, 349200 kPa, Falling or rolling sphere viscometry | 538.5 mPa·s and 531 mPa·s
343.15 K, 10000 kPa, Falling or rolling sphere viscometry | 7.3 mPa·s
343.15 K, 15000 kPa, Falling or rolling sphere viscometry | 8 mPa·s
343.15 K, 25000 kPa, Falling or rolling sphere viscometry | 9.4 mPa·s
343.15 K, 50000 kPa, Falling or rolling sphere viscometry | 13.6 mPa·s
343.15 K, 75000 kPa, Falling or rolling sphere viscometry | 19.2 mPa·s and 18.7 mPa·s
343.15 K, 100000 kPa, Falling or rolling sphere viscometry | 26.5 mPa·s and 27.2 mPa·s
343.15 K, 125000 kPa, Falling or rolling sphere viscometry | 36.2 mPa·s and 38.1 mPa·s
343.15 K, 150000 kPa, Falling or rolling sphere viscometry | 49.1 mPa·s and 52 mPa·s
343.15 K, 175000 kPa, Falling or rolling sphere viscometry | 69.9 mPa·s
343.15 K, 200000 kPa, Falling or rolling sphere viscometry | 92.8 mPa·s
343.15 K, 225000 kPa, Falling or rolling sphere viscometry | 122.1 mPa·s
343.15 K, 250000 kPa, Falling or rolling sphere viscometry | 159.6 mPa·s
348.15 K, 20000 kPa, Falling or rolling sphere viscometry | 7.45 mPa·s
348.15 K, 40000 kPa, Falling or rolling sphere viscometry | 10.15 mPa·s
348.15 K, 60000 kPa, Falling or rolling sphere viscometry | 13.51 mPa·s
348.15 K, 80000 kPa, Falling or rolling sphere viscometry | 17.79 mPa·s
348.15 K, 100000 kPa, Falling or rolling sphere viscometry | 23.08 mPa·s
348.15 K, 120000 kPa, Falling or rolling sphere viscometry | 29.61 mPa·s
348.15 K, 140000 kPa, Falling or rolling sphere viscometry | 37.63 mPa·s
348.15 K, 160000 kPa, Falling or rolling sphere viscometry | 48.09 mPa·s
348.15 K, 180000 kPa, Falling or rolling sphere viscometry | 60.38 mPa·s
348.15 K, 198300 kPa, Falling or rolling sphere viscometry | 70.83 mPa·s
348.15 K, 200000 kPa, Falling or rolling sphere viscometry | 74.91 mPa·s
348.15 K, 200400 kPa, Falling or rolling sphere viscometry | 72.63 mPa·s
348.15 K, 300600 kPa, Falling or rolling sphere viscometry | 202.9 mPa·s
348.15 K, 349800 kPa, Falling or rolling sphere viscometry | 327.6 mPa·s
363.15 K, 10200 kPa, Falling or rolling sphere viscometry | 4.36 mPa·s
363.15 K, 21000 kPa, Falling or rolling sphere viscometry | 5.15 mPa·s
363.15 K, 30900 kPa, Falling or rolling sphere viscometry | 5.97 mPa·s
363.15 K, 40700 kPa, Falling or rolling sphere viscometry | 6.84 mPa·s
363.15 K, 50600 kPa, Falling or rolling sphere viscometry | 7.82 mPa·s
363.15 K, 60600 kPa, Falling or rolling sphere viscometry | 8.94 mPa·s
363.15 K, 70700 kPa, Falling or rolling sphere viscometry | 10.18 mPa·s
363.15 K, 80600 kPa, Falling or rolling sphere viscometry | 11.49 mPa·s
363.15 K, 91000 kPa, Falling or rolling sphere viscometry | 13.06 mPa·s
363.15 K, 100000 kPa, Falling or rolling sphere viscometry | 14.59 mPa·s and 14.2 mPa·s
363.15 K, 120400 kPa, Falling or rolling sphere viscometry | 18.36 mPa·s
363.15 K, 125000 kPa, Falling or rolling sphere viscometry | 19.9 mPa·s
363.15 K, 150000 kPa, Falling or rolling sphere viscometry | 26.8 mPa·s
363.15 K, 150300 kPa, Falling or rolling sphere viscometry | 25.56 mPa·s
363.15 K, 175000 kPa, Falling or rolling sphere viscometry | 35.1 mPa·s
363.15 K, 200000 kPa, Falling or rolling sphere viscometry | 45 mPa·s
363.15 K, 200200 kPa, Falling or rolling sphere viscometry | 42.82 mPa·s
363.15 K, 225000 kPa, Falling or rolling sphere viscometry | 56.7 mPa·s
363.15 K, 225600 kPa, Falling or rolling sphere viscometry | 55.03 mPa·s
363.15 K, 246900 kPa, Falling or rolling sphere viscometry | 66.23 mPa·s
363.15 K, 250000 kPa, Falling or rolling sphere viscometry | 70.4 mPa·s
